The text below walks through data of publication PMC7503713, “GANT61 Reduces Hedgehog Molecule (GLI1) Expression and Promotes Apoptosis in Metastatic Oral Squamous Cell Carcinoma Cells” (International Journal of Molecular Sciences, 2020).

In one experiment the test system is CAF 2. Nature of the experiment: alamarBlue cytotoxicity assay, cancer-associated fibroblasts CAF 2. In kind it is cell-based, human. The conditions noted are these: CAF 2, alamarBlue, 72 h of incubation. The method, then: (§1) Two cancer-associated fibroblast populations (CAF1 and CAF2) were obtained as described by Sobral et al. (2011), from fragments of squamous cell carcinoma of the tongue that were removed from patients seen at the UNICAMP School of Dentistry in Piracicaba, São Paulo, Brazil.
(§2) Specimens were washed with PBS, fragmented, and placed in 25 cm^2 cell culture flasks containing 1 mL of DMEM medium supplemented with 10% FBS and an antibiotic, and then maintained in an incubator, at 37 °C, under 5% CO2. Cell growth was monitored daily, and the medium was replaced every 2–3 days. […] Type I collagen production as assessed by ELISA was also used as a marker of myofibroblast activity. Both CAF1 and CAF2 primary populations were maintained for a maximum of 12 passages, with CAF phenotype maintenance evaluated through immunocytochemical staining for the α-SMA antibody after each two passages. […]
(§3) To assess the cytotoxicity of the GLI inhibitor GANT61 (Sigma-Aldrich, St. Louis, MO, USA) in tumor and non-tumor cell lines, an alamarBlue assay (Sigma-Aldrich Chemical Co, St. Louis, MO, USA) was performed after 72 h of exposure to the inhibitor, as described by Ahmed et al., 1994 [46]. […] Absorbance was measured at 570 nm (reduced) and 595 nm (oxidized) wavelengths, using a Spectramax 190 plate reader (Molecular Devices; Sunnyvale, CA, USA). […]

A further experiment has as its system HepG2. Nature of the experiment: alamarBlue cytotoxicity assay, HepG2. It counts as cell-based, human. The following applies: 72 h of incubation. On the procedure: (§4) To assess the cytotoxicity of the GLI inhibitor GANT61 (Sigma-Aldrich, St. Louis, MO, USA) in tumor and non-tumor cell lines, an alamarBlue assay (Sigma-Aldrich Chemical Co, St. Louis, MO, USA) was performed after 72 h of exposure to the inhibitor, as described by Ahmed et al., 1994 [46]. Cells were distributed on 96-well plates at a density of 7 × 10^4 cells/mL for adhered cells, and 3 × 10^5 cells/mL for cells in suspension. All tested compounds were dissolved in DMSO, added to wells containing 100 µL of cells in complete medium, and then incubated for 72 h. Eight concentrations of GANT61 (0.19 to 50 µg/mL), Doxorubicin (Laboratory IMA S.A.I.C., Buenos Aires, Argentina), and 5-Fluorouracil (5-FU, Sigma-Aldrich, St. Louis, MO, USA), both used as positive controls at concentrations ranging from 0.03 to 5 µg/mL, were added to respective wells. Cells treated with the vehicle (0.5% DMSO) used to dilute the tested compounds were used as negative controls. Before the end of the incubation period (4 h for cell lines and 24 h for PBMCs), 20 µL of alamarBlue stock solution (resazurin, Sigma-Aldrich, St. Louis, MO, USA) was added to each well. Absorbance was measured at 570 nm (reduced) and 595 nm (oxidized) wavelengths, using a Spectramax 190 plate reader (Molecular Devices; Sunnyvale, CA, USA).
(§5) Statistical analyses were performed, using GraphPad Prism v. 6.03 (GraphPad Software, Inc., San Diego, USA). Data were analyzed according to distribution along the normal Gaussian curve. IC50 values were obtained through non-linear regression, using results from three independent experiments carried out in duplicate. Differences between groups resulting from in vitro assays were evaluated by ANOVA (analysis of variance) testing, followed by the Student–Newman–Keuls test. This study considered a level of significance, corresponding to alpha (α) or “p” value, when results were less than or equal to 5%.

The test system of experiment [1] is HSC3 cells. Kind of experiment: Morphological analysis by flow cytometry (FSC/SSC). In kind it is cell-based, human. The method, then: (§6) To study the effects of GANT61 on HSC3 cell viability, cycle, and death patterns, 4 mL of cellular solution (containing 0.7 × 10^5 cells/mL) was placed on 6-well plates and incubated overnight, to allow adhesion. […] For cell cycle analysis, the effects of GANT61 on HSC3 cells were also evaluated after 12 h of treatment. Negative controls were treated with the vehicle (0.2% DMSO) used to dilute the GLI inhibitor, and 5-fluorouracil (5-FU, 17 μM) was used as a positive control. All experiments were carried out in duplicate and repeated no less than three times. Cell viability was determined by the trypan blue exclusion method, in which 90 μL aliquots were collected at several incubation periods, stained with 10 μL trypan blue, and counted in a Neubauer chamber, under optical microscopy, at 20× magnification (Olympus CX41 Olympus, Tokyo, Japan).
Morphological analysis of HSC3 cells was performed by flow cytometry, using FSC (size/volume) and SSC (granularity) parameters (FACSDiva). Cells were acquired (10,000 events/sample) and analyzed on a BD LSRFortessa flow cytometer, using the BD FACSDiva software version 6.2 (Becton Dickinson Biosciences, San José, CA, USA). Cellular debris was omitted from our analyses.

The next experiment has as its system CAF 1. Kind of experiment: alamarBlue cytotoxicity assay, cancer-associated fibroblasts CAF 1. It counts as cell-based, human. The following applies: CAF 1, alamarBlue, 72 h of incubation. On the procedure:
as §1, §2, §3

A further experiment concerns NOF. Nature of the experiment: alamarBlue cytotoxicity assay, normal oral fibroblasts NOF. In kind it is cell-based. The conditions noted are these: Homo sapiens, Fibroblast, 72 h of incubation. The method, then: For comparative analysis, primary cultures of normal oral fibroblasts (NOF) were isolated from fragments of healthy patient gingiva, using the same technique previously described for CAFs above, and then maintained in culture for up to 15 passages.
To assess the cytotoxicity of the GLI inhibitor GANT61 (Sigma-Aldrich, St. Louis, MO, USA) in tumor and non-tumor cell lines, an alamarBlue assay (Sigma-Aldrich Chemical Co, St. Louis, MO, USA) was performed after 72 h of exposure to the inhibitor, as described by Ahmed et al., 1994 [46]. Cells were distributed on 96-well plates at a density of 7 × 10^4 cells/mL for adhered cells, and 3 × 10^5 cells/mL for cells in suspension. All tested compounds were dissolved in DMSO, added to wells containing 100 µL of cells in complete medium, and then incubated for 72 h. […] Absorbance was measured at 570 nm (reduced) and 595 nm (oxidized) wavelengths, using a Spectramax 190 plate reader (Molecular Devices; Sunnyvale, CA, USA).
(§7) Statistical analyses were performed, using GraphPad Prism v. […] Data were analyzed according to distribution along the normal Gaussian curve. […] Differences between groups resulting from in vitro assays were evaluated by ANOVA (analysis of variance) testing, followed by the Student–Newman–Keuls test. […]

The subject of experiment [2] is HSC3 cells. Nature of the experiment: Phosphatidylserine externalization by flow cytometry (annexin V-FITC/PI). In kind it is cell-based, human. The method, then: as §6
Following treatment with GANT61, cells were labeled with annexin V-FITC and PI to determine cell viability (classified as viable, early apoptosis, late apoptosis, and necrosis), according to the manufacturer’s protocol (Becton Dickinson Biosciences, San José, CA, USA). Cells were acquired (10,000 events/sample) and analyzed on a BD LSRFortessa flow cytometer, using BD FACSDiva software version 6.2 (Becton Dickinson Biosciences, San José, CA, USA). The proportion of cells undergoing apoptosis was determined by the percentage of annexin labeling as quantified by the FlowJo program, version 10 (Flowjo LCC, Ashland, OR, USA). Cellular debris was omitted from our analyses.

Another experiment concerns K562. Kind of experiment: alamarBlue cytotoxicity assay, K562. In kind it is cell-based, human. The following applies: 72 h of incubation. The method, then:
as §4, §5

The next experiment relates to HT-29. Kind of experiment: alamarBlue cytotoxicity assay, HT-29. It counts as cell-based, human. The conditions noted are these: HT-29, alamarBlue, 72 h of incubation. The method, then: as §4, with “Cells treated with the vehicle (0.5% DMSO) used to dilute the tested compounds were used as negative controls. Before the end of the incubation period (4 h for cell lines and 24 h for PBMCs), 20 µL of alamarBlue stock solution (resazurin, Sigma-Aldrich, St. Louis, MO, USA) was added to each well.” left out
as §7

The next experiment relates to HL60. Nature of the experiment: alamarBlue cytotoxicity assay, HL60. In kind it is cell-based, human. The conditions noted are these: 72 h of incubation. The method, then: as §4, with “Cells treated with the vehicle (0.5% DMSO) used to dilute the tested compounds were used as negative controls. Before the end of the incubation period (4 h for cell lines and 24 h for PBMCs), 20 µL of alamarBlue stock solution (resazurin, Sigma-Aldrich, St. Louis, MO, USA) was added to each well.” left out
as §7

Consider `O=c1[nH]cc(F)c(=O)[nH]1` [5-FU, 5-fluorouracil], for which the IC50 in the experiment with CAF 2 (Homo sapiens, Fibroblast) is above 192 µM; with HepG2 (Homo sapiens) it was 1.3 µM; in the experiment on CAF 1 (Homo sapiens, Fibroblast) it was above 192 µM; in the experiment on NOF, 39.6 µM; in the experiment with K562 (Homo sapiens), 18.1 µM. Further, the “cell morphology (FSC/SSC)” value with HSC3 cells [1] (HSC3, 17 µM) is listed as “changes consistent with apoptotic death”. In the experiment with HSC3 cells [2] (5-FU positive control, only after 72 h), the cell apoptosis entry was “significantly increased cell apoptosis”.
Turning to `CN(C)c1ccccc1CN1CCCN(Cc2ccccc2N(C)C)C1c1ccncc1` [GANT61], the IC50 was above 116 µM in the experiment on HT-29; 71.5 µM in the experiment with CAF 2; above 116 µM in the experiment on HepG2; above 116 µM in the experiment with HL60; 3.67 µM in the experiment with CAF 1; above 116 µM in the experiment with K562. The “cell morphology (FSC/SSC)” value in the experiment with HSC3 cells [1] (HSC3, 18 and 36 µM, 24, 48 and 72 h) was “cell shrinkage”. Also, the cell apoptosis result in the experiment on HSC3 cells [2] (18 µM, 48 and 72 h) is “significantly increased cell apoptosis”. For the same compound, the “exposure of phosphatidylserine on HSC3 cell surfaces” value in the experiment with HSC3 cells [2] (36 µM, all times evaluated, vs DMSO (0.2%)) was “significantly higher exposure of phosphatidylserine”.
